Experimental data as given in patent EP1157000B1 (Warner-Lambert Company LLC, priority 1999, dated 2001).
Structures can show the parent of a compound that is named as a salt. Where two headings read alike, the source gives them in different places.

Target: T1, rBCATc (Rattus norvegicus, UniProt P54690)
T1 construct: The supernatant was dialyzed with at least three changes of dialysis buffer; from tissue; host or cells: rat brain (high-speed supernatant of homogenate, dialyzed)
T1 sequence (P54690 1-411): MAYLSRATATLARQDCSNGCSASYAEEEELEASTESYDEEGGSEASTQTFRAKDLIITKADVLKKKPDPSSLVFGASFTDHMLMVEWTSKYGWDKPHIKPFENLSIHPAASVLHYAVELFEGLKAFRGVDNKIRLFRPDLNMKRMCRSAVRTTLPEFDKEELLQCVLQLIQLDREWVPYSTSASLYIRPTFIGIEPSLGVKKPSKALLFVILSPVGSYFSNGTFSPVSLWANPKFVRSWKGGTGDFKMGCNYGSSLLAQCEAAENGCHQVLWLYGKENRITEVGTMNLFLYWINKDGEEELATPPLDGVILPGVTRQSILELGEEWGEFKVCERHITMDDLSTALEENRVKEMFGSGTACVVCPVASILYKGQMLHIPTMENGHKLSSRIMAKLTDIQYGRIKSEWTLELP
Assay: Assay of BCAT ([14C] L-leucine transamination, rat brain supernatant enzyme)
Type: biochemical
Details: 10 mM 2-oxoglutarate, pH 8.3, 10 min, 22 °C
Experimental: Enzyme preparation: Frozen rat brains were thawed on ice and minced into fine pieces. […] The samples were homogenized in Potters homogenizer (B. Bran Biotech International) at 500 rpm for ten strokes, followed by additional ten strokes at 800 rpm. The homogenates were centrifuged in Beckman J2-M1 centrifuge with rotor JA-20 at 19, 000 rpm for 1 hr. […] The resulting enzyme was stored at -80 °C for further assays.
The solutions for the reaction mixture were made in 10-fold concentrations. After 10 min incubation at room temperature (22 °C), the reaction was stopped by adding 100 µl of 15 mM p-nitrophenyl hydrazine in 2 M HCL. After a few minutes, 1 mL of a toluene-based scintillation liquid (4.5 g of PPO and 0.5 g ofbis-MSB in 1 liter of toluene) was added, the tube was capped and mixed thoroughly with a Vortex mixer. […] Six hundreds µl of organic layer from each tube was placed into scintillation vials, followed by adding 10 ml of scintillation cocktail for counting.

[1] = 25 µM [14C] L-leucine, read-out: rBCATc IC50

Work on `CCC(C)CNCC1(CC(=O)O)C[C@H](C)C[C@H](C)C1` (stereo partly drawn) [Example 42, {(3R, 5S)-3,5-Dimethyl-1-[(2-methyl-butylamino)-methyl]-cyclohexyl}-acetic acid; hydrochloride salt] yielded an IC50 [1] of 669 µM.
For `COC(CNCC1(CC(=O)O)C[C@H](C)C[C@H](C)C1)OC` (stereo partly drawn) [Example 44, {(3R, 5S)-1-[(2,2-Dimethoxy-ethylamino)-methyl]-3,5-dimethylcyclohexyl}-acetic acid; hydrochloride salt], the IC50 [1] was 2730 µM.
`CCCNCC1(CC(=O)O)CCCCC1` [Example 32, (1-Propylaminomethyl-cyclohexyl)-acetic acid hydrochloride salt] gave an IC50 [1] of 243 µM.
Molecule `C[C@@H]1CC(CN)(CC(=O)O)C[C@H]1C` [Example 6, (+)-(trans)-(1-Aminomethyl-3,4-dimethyl-cyclopentyl)-acetic acid hydrochloride] has an IC50 [1] of 2620 µM.
Molecule `NCC1(CC(=O)O)CCCC1` [Example 23, 1-Aminomethyl-1-cyclopentane-acetic acid] has an IC50 [1] of 2120 µM.
Work on `CCCNC[C@@]1(CC(=O)O)C[C@H](C)C[C@H](C)C1` [Example 9, 1α,3β,5β-(3,5-Dimethyl-1-propylaminomethyl-cyclohexyl)-acetic acid; hydrochloride salt] yielded an IC50 [1] of 120 µM.
In the case of `CC1CC(C)CC(CC(=O)O)(CN(C)C)C1` (stereo not drawn) [Example 12, 1α,3β,5β-(1-Dimethylaminomethyl-3,5-dimethyl-cyclohexyl)-acetic acid; hydrochloride salt], the IC50 [1] is reported as 1490 µM.
In the case of `CC(C)CNCC1(CC(=O)O)CCCCC1` [Example 31, [1-(Isobutylamino-methyl)-cyclohexyl]-acetic acid hydrochloride salt], the IC50 [1] is reported as 908 µM.
`O=C(O)CC1(CNC2CCC2)CCCCC1` [Example 20, hydrochloride salt] showed an IC50 [1] of 469 µM.
For `C[C@@H]1C[C@H](C)CC(CO)(CC(=O)O)C1` (stereo partly drawn) [Example 58, ((3R, 5S)-1-Hydroxymethyl-3,5-dimethyl-cyclohexyl)-acetic acid; sodium salt], the IC50 [1] was 179 µM.
With `C[C@@H]1CCC[C@](CN)(CC(=O)O)C1` [Example 1, trans-(1R,3R)(1-Aminomethyl-3-methyl-cyclohexyl)-acetic acid hydrochloride] the IC50 [1] was 146 µM.
Molecule `CCC1CCC(CN)(CC(=O)O)CC1` (stereo not shown) [Example 60, (1-Aminomethyl-4-ethyl-cyclohexyl)-acetic acid; hydrochloric salt] has an IC50 [1] of 11500 µM.
Molecule `CCNCC1(CC(=O)O)CC(C)CC(C)C1` (stereo not drawn) [Example 10, 1α,3β,5β-(1-Ethylaminomethyl-3,5-dimethyl-cyclohexyl)-acetic acid hydrochloride salt] has an IC50 [1] of 121 µM.
In the case of `CC(C)(C)OC(=O)NCC1(CC(=O)O)CCCCC1` [Example 39, [1-(tert-Butoxycarbonylamino-methyl)-cyclohexyl]-acetic acid], the IC50 [1] is reported as 933 µM.
In the case of `CCCCNC[C@@]1(CC(=O)O)C[C@H](C)C[C@H](C)C1` [Example 13, 1α,3β,5β-(1-Butylaminomethyl-3,5-dimethyl-cyclohexyl)-acetic acid; hydrochloride salt], the IC50 [1] is reported as greater than 10000 µM.
`CC1(C)CCCC(CN)(CC(=O)O)C1` (stereo not shown) [Example 3, (1-Aminomethyl-3,3-dimethyl-cyclohexyl)-acetic acid hydrochloride] gave an IC50 (rBCATc IC50, 25 µM [14C] L-leucine) of 1660 µM.
